The source of these data is paper PMC8757360 (ACS Omega, 2021).

Molecules are shown by their SMILES.

As a reminder, the IC50 is the concentration at which inhibition is half-maximal. By Kd is commonly meant the free concentration of one partner at which half of the binding sites on the other are occupied at equilibrium, for simple one-to-one binding.

One series has as its system MCF-7. Description: MTT cytotoxicity, MCF-7. Particulars: for IC50: Homo sapiens, MCF7, 72 h, read-out: IC50 MCF-7.
The target in the next series is SARS-CoV-2 spike RBD (Severe acute respiratory syndrome coronavirus 2, UniProt P0DTC2). Put plainly: biochemical. It counts as binding.
In a further series the target is human ACE2 (Homo sapiens, UniProt Q9BYF1). Description: biochemical. The format is binding.
The test system of another series is HEK-293T-ACE2h cells. Particulars: human.
A further series has as its system A549. Description: MTT cytotoxicity, A549. The format is cell-based. Particulars: Homo sapiens, A549, 72 h, read-out: IC50 A549.
In series [1] the test system is MCF-7, T47D, MDA-MB-231, and A549. Description: MTT cytotoxicity, range stated over four cancer cell lines. The format is cell-based. Conditions: Homo sapiens, 72 h, read-out: IC50 values ranging over four cancer cell lines.
The next series deals with MDA-MB-231. Put plainly: MTT cytotoxicity, MDA-MB-231. The format is cell-based. Particulars: Homo sapiens, MDA-MB-231, 72 h, read-out: IC50 MDA-MB-231.
In a further series the test system is T47D. Put plainly: MTT cytotoxicity, T47D. Particulars: for IC50: Homo sapiens, T47D, 72 h, read-out: IC50 T47D; for cytotoxic effect, fold more potent than berberine: T47D cells, versus positive control berberine.
Series [2] concerns SARS-CoV-2 spike pseudovirus. It counts as cell-based.

Chain of human ACE2 (Q9BYF1 18-805): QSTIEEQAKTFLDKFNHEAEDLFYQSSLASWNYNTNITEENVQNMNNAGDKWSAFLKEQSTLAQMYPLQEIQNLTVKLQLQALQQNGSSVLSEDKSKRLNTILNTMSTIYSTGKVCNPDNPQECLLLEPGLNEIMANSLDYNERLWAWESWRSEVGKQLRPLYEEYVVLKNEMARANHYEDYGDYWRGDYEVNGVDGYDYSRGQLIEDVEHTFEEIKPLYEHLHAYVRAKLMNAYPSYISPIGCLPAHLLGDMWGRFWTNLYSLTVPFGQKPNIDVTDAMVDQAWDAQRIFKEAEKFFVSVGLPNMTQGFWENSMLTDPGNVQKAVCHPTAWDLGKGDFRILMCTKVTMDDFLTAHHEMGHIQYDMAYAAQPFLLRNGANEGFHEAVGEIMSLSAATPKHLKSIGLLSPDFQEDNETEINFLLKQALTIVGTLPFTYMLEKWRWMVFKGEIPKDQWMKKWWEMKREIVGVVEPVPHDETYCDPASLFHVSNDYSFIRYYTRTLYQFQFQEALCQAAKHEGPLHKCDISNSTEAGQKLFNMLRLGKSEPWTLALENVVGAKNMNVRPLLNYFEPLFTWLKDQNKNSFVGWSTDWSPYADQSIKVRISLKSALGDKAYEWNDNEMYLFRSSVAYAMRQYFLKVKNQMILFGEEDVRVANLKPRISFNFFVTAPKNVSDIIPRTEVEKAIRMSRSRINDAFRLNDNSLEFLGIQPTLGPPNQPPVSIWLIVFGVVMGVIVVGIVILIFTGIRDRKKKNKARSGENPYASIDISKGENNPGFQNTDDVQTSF

For `c1ccc(-c2nc3ccccc3nc2-c2ccccc2)cc1` [4aa, 2,3-Diphenylquinoxaline], the IC50 with MCF-7 was 16.7 ± 1.34 µM; in the series with A549 it was 26.3 ± 1.96 µM; in series [1], 6.25 to 28.6 µM; in the series with MDA-MB-231 it was 28.6 ± 1.85 µM; in the series with T47D it was 11.4 ± 1.17 µM. The Kd on SARS-CoV-2 spike RBD came out at 1000 ± 761 µM; at human ACE2, 5890 ± 1670 µM. Besides, in the series with HEK-293T-ACE2h cells, the “CC0 (maximum nontoxic concentration)” value was more than 250 µM. In the series on HEK-293T-ACE2h cells, the “TC50 (concentration that caused 50% cells' death)” value was more than 25 µM.
As for `Cc1ccc2nc(-c3ccccc3)c(-c3ccccc3)nc2c1` [4ab, 6-Methyl-2,3-diphenylquinoxaline], the IC50 in the series with MCF-7 is 10 ± 0.55 µM; in the series with A549, 19.7 ± 1.28 µM; in series [1], 6.25 to 28.6 µM; with MDA-MB-231, 18.2 ± 1.34 µM; in the series with T47D, 6.77 ± 0.57 µM. Also, the “CC0 (maximum nontoxic concentration)” value with HEK-293T-ACE2h cells worked out at 62.5 µM. Also, in the series on HEK-293T-ACE2h cells, the “TC50 (concentration that caused 50% cells' death)” value was found to be 288.40 ± 17.65 µM. Moreover, the “cytotoxic effect, fold more potent than berberine” value in the series with T47D is 3.94 fold.
As for `COc1ccc2nc(-c3ccccc3)c(-c3ccccc3)nc2c1` [4ac, 6-Methoxy-2,3-diphenylquinoxaline], the concentration for half-maximal inhibition (IC50) with MCF-7, in the series on A549, in the series on MDA-MB-231 and in the series on T47D was more than 50 µM throughout. Moreover, in the series on HEK-293T-ACE2h cells, the “CC0 (maximum nontoxic concentration)” value worked out at 50 µM. Besides, the “TC50 (concentration that caused 50% cells' death)” value in the series with HEK-293T-ACE2h cells is 116.03 ± 4.28 µM.
Take `Clc1ccc2nc(-c3ccccc3)c(-c3ccccc3)nc2c1` [4ad, 6-Chloro-2,3-diphenylquinoxaline]: the IC50 in the series with MCF-7, in the series on A549, in the series with MDA-MB-231 and in the series on T47D was more than 50 µM in each case. Moreover, the Kd at SARS-CoV-2 spike RBD stood at 8.16 ± 1.34 µM; at human ACE2, 4.02 ± 2.03 µM. For the same compound, in the series with HEK-293T-ACE2h cells, the “CC0 (maximum nontoxic concentration)” value is more than 25 µM. Moreover, the “TC50 (concentration that caused 50% cells' death)” value in the series on HEK-293T-ACE2h cells is more than 500 µM. Moreover, the “SI (selectivity index, TC50/IC50)” value in series [2] is reported as more than 23.49.
As for `N#Cc1ccc2nc(-c3ccccc3)c(-c3ccccc3)nc2c1` [4ae, 2,3-Diphenylquinoxaline-6-carbonitrile], the IC50 with MCF-7, in the series on A549, with MDA-MB-231 and in the series with T47D was more than 50 µM throughout. In addition, the “CC0 (maximum nontoxic concentration)” value in the series with HEK-293T-ACE2h cells is 125 µM. The “TC50 (concentration that caused 50% cells' death)” value with HEK-293T-ACE2h cells was found to be 303.27 ± 9.51 µM.
Take `COC(=O)c1ccc2nc(-c3ccccc3)c(-c3ccccc3)nc2c1` [4af, Methyl 2,3-diphenylquinoxaline-6-carboxylate]: the 50% inhibitory concentration (IC50) in the series on MCF-7, in the series on A549, in the series with MDA-MB-231 and with T47D was more than 50 µM throughout. Besides, the “CC0 (maximum nontoxic concentration)” value in the series with HEK-293T-ACE2h cells came out at 100 µM. Moreover, in the series with HEK-293T-ACE2h cells, the “TC50 (concentration that caused 50% cells' death)” value is more than 100 µM.
For the compound `c1ccc(-c2nc3cc4ccccc4cc3nc2-c2ccccc2)cc1` [4ag, 2,3-Diphenylbenzo[g]quinoxaline], the IC50 is more than 50 µM in the series with MCF-7, 44.5 ± 3.55 µM in the series with A549, 45 ± 1.57 µM in the series on MDA-MB-231 and 20.5 ± 1.64 µM in the series with T47D. The “CC0 (maximum nontoxic concentration)” value with HEK-293T-ACE2h cells amounted to 50 µM. Moreover, the “TC50 (concentration that caused 50% cells' death)” value in the series on HEK-293T-ACE2h cells is 107.20 ± 1.64 µM.
Take `Cc1ccc(-c2nc3ccccc3nc2-c2ccccc2)cc1` [4ba, 2-Phenyl-3-(p-tolyl)quinoxaline]: the IC50 in the series on MCF-7 is 15.7 ± 1.18 µM; in the series with A549, 24.1 ± 1.11 µM; in series [1] it was 6.25 to 28.6 µM; in the series on MDA-MB-231, 21.4 ± 1.19 µM; in the series with T47D, 9.76 ± 1.3 µM. In addition, in the series on HEK-293T-ACE2h cells, the “CC0 (maximum nontoxic concentration)” value came to 125 µM. Moreover, the “TC50 (concentration that caused 50% cells' death)” value with HEK-293T-ACE2h cells was 271.67 ± 13.00 µM.
Regarding `COc1ccc(-c2nc3ccccc3nc2-c2ccccc2)cc1` [4ca, 2-(4-Methoxyphenyl)-3-phenylquinoxaline], the IC50 was more than 50 µM with MCF-7, more than 50 µM in the series on A549, 48.8 ± 1.01 µM in the series on MDA-MB-231 and more than 50 µM with T47D. Also, the Kd on SARS-CoV-2 spike RBD came to 15.5 ± 1.14 µM; on human ACE2 it was 3.67 ± 0.66 µM. Moreover, in the series on HEK-293T-ACE2h cells, the “CC0 (maximum nontoxic concentration)” value was 125 µM. The “TC50 (concentration that caused 50% cells' death)” value with HEK-293T-ACE2h cells was found to be 276.90 ± 13.45 µM. The “SI (selectivity index, TC50/IC50)” value in series [2] is given as 14.05.
For `c1ccc(-c2ccc(-c3nc4ccccc4nc3-c3ccccc3)cc2)cc1` [4ha, 2-([1,1′-Biphenyl]-4-yl)-3-phenylquinoxaline], the IC50 with MCF-7, in the series with A549, in the series with MDA-MB-231 and with T47D was more than 50 µM in each case. Besides, the Kd was 135 ± 17.7 µM on SARS-CoV-2 spike RBD and 238 ± 57.3 µM at human ACE2. Further, the “CC0 (maximum nontoxic concentration)” value with HEK-293T-ACE2h cells is more than 250 µM. Further, in the series with HEK-293T-ACE2h cells, the “TC50 (concentration that caused 50% cells' death)” value is more than 500 µM. For the same compound, in series [2], the “SI (selectivity index, TC50/IC50)” value is on record as more than 3.50.
Consider `Clc1ccc(-c2nc3ccccc3nc2-c2ccccc2)cc1` [4ia, 2-(4-Chlorophenyl)-3-phenylquinoxaline], for which the IC50 is 7.3 ± 1.1 µM in the series on MCF-7; 18.6 ± 0.25 µM in the series with A549; 6.25 to 28.6 µM in [1]; 17.8 ± 0.69 µM in the series on MDA-MB-231; 6.25 ± 0.73 µM in the series with T47D. Besides, the “cytotoxic effect, fold more potent than berberine” value with MCF-7 (MCF-7 cells, versus positive control berberine) is listed as 1.96 fold; with T47D, 4.27 fold. Moreover, in the series on HEK-293T-ACE2h cells, the “CC0 (maximum nontoxic concentration)” value was 25 µM. The “TC50 (concentration that caused 50% cells' death)” value in the series with HEK-293T-ACE2h cells is 115.20 ± 9.72 µM.
With `Brc1ccc(-c2nc3ccccc3nc2-c2ccccc2)cc1` [4ja, 2-(4-Bromophenyl)-3-phenylquinoxaline], in the series on HEK-293T-ACE2h cells, the “CC0 (maximum nontoxic concentration)” value is 25 µM and the “TC50 (concentration that caused 50% cells' death)” value is more than 100 µM.
In the case of `Fc1ccc(-c2nc3ccccc3nc2-c2ccccc2)cc1` [4ka, 2-(4-Fluorophenyl)-3-phenylquinoxaline], in the series with HEK-293T-ACE2h cells, the “CC0 (maximum nontoxic concentration)” value came to 25 µM and the “TC50 (concentration that caused 50% cells' death)” value is more than 100 µM.
Turning to `c1ccc(-c2nc3ccccc3nc2-c2ccc3ccccc3c2)cc1` [4pa, 2-(Naphthalen-2-yl)-3-phenylquinoxaline], the IC50 in the series on MCF-7, in the series with A549, with MDA-MB-231 and with T47D was more than 50 µM in each case. Moreover, the “CC0 (maximum nontoxic concentration)” value in the series on HEK-293T-ACE2h cells was more than 25 µM. For the same compound, the “TC50 (concentration that caused 50% cells' death)” value in the series with HEK-293T-ACE2h cells was more than 250 µM.
With `c1ccc(-c2nc3ccccc3nc2-c2ccsc2)cc1` [4ra, 2-Phenyl-3-(thiophen-3-yl)quinoxaline], the IC50 with MCF-7, with A549, in the series with MDA-MB-231 and with T47D was more than 50 µM throughout. The “CC0 (maximum nontoxic concentration)” value in the series on HEK-293T-ACE2h cells was determined as 62.5 µM. For the same compound, the “TC50 (concentration that caused 50% cells' death)” value with HEK-293T-ACE2h cells is 337.06 ± 15.49 µM.
`C=CCc1cc(-c2cc(CC=C)c3oc(=O)n(Cc4nnc(-c5ccc(OC)cc5)o4)c3c2)c2oc(=O)n(Cc3nnc(-c4ccc(OC)cc4)o3)c2c1` [6p, 5′,7-Diallyl-3,3′-bis((5-(4-methoxyphenyl)-1,3,4-oxadiazol-2-yl)methyl)-[5,7′-bibenzo[d]oxazole]-2,2′(3H,3′H)-dione, reference compound]: in the series on HEK-293T-ACE2h cells, the “CC0 (maximum nontoxic concentration)” value was more than 100 µM and the “TC50 (concentration that caused 50% cells' death)” value was more than 100 µM. The “SI (selectivity index, TC50/IC50)” value in series [2] is recorded as more than 8.40.
For the compound `COc1ccc2cc3[n+](cc2c1OC)CCc1cc2c(cc1-3)OCO2` [berberine, reference compound], the IC50 with MCF-7 was 14.3 ± 1.44 µM; in the series with A549 it was 5.22 ± 0.44 µM; in the series on MDA-MB-231 it was 18 ± 1.91 µM; in the series on T47D, 26.7 ± 2.45 µM.
